Tests used:
Experiment in all cases: relative viability (nuclei count vs DMSO), 5 days (fraction); higher = more cells survive
NCI-H1975 = system: NCI-H1975
Procedure, shortened: (§1)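 Relative viability was taken as the ratio of nuclei in treated wells to nuclei in vehicle wells. Lung cancer cell lines in 1536-well plates received compounds by pin tool one day after seeding, either one drug alone or a fixed anchor-drug dose plus five library-drug doses (not always all listed) in √10 steps. Nuclei were counted on 4× images after 5 days of treatment, and values are medians of duplicate plates.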

PC-3 [JPC-3] = system: PC-3 [JPC-3]
Procedure, shortened: as §1

NCI-H596 = system: NCI-H596
Procedure, shortened: as §1

NCI-H1666 = system: NCI-H1666
Procedure, shortened: as §1

NCI-H1792 = system: NCI-H1792
Procedure, shortened: as §1

NCI-H322M = system: NCI-H322M
Procedure, shortened: as §1

NCI-H23 = system: NCI-H23
Procedure, shortened: as §1

NCI-H727 = system: NCI-H727
Procedure, shortened: as §1

NCI-H441 = system: NCI-H441
Procedure, shortened: as §1

NCI-H647 = system: NCI-H647
Procedure, shortened: as §1

NCI-H2342 = system: NCI-H2342
Procedure, shortened: as §1

LCLC-97TM1 = system: LCLC-97TM1
Procedure, shortened: as §1

NCI-H838 = system: NCI-H838
Procedure, shortened: as §1

NCI-H358 = system: NCI-H358
Procedure, shortened: as §1

NCI-H522 = system: NCI-H522
Procedure, shortened: as §1

NCI-H1915 = system: NCI-H1915
Procedure, shortened: as §1

NCI-H1437 = system: NCI-H1437
Procedure, shortened: as §1

NCI-H460 = system: NCI-H460
Procedure, shortened: as §1

EKVX = system: EKVX
Procedure, shortened: as §1

Cc1csc(=NC2CCCCC2)n1/N=C/c1ccc(O)c(O)c1O [MIM1] + NC(=O)Nc1cc(-c2cccc(F)c2)sc1C(=O)N[C@H]1CCCNC1 [AZD7762] (partner 0.2 µM)
relative viability (NCI-H1975; first compound 0.2 µM): 0.765
relative viability (NCI-H1975; first compound 0.6325 µM): 0.628
relative viability (NCI-H1975; first compound 2 µM): 0.697
relative viability (NCI-H1975; first compound 6.325 µM): 0.549
relative viability (NCI-H1975; first compound 20 µM): 0.572
relative viability (PC-3 [JPC-3]; first compound 0.2 µM): 0.899
relative viability (PC-3 [JPC-3]; first compound 0.6325 µM): 0.801
relative viability (PC-3 [JPC-3]; first compound 2 µM): 0.719
relative viability (PC-3 [JPC-3]; first compound 6.325 µM): 0.724
relative viability (PC-3 [JPC-3]; first compound 20 µM): 0.751
relative viability (NCI-H596; first compound 0.2 µM): 1.17
relative viability (NCI-H596; first compound 0.6325 µM): 1.22
relative viability (NCI-H596; first compound 2 µM): 1.03
relative viability (NCI-H596; first compound 6.325 µM): 1.11
relative viability (NCI-H596; first compound 20 µM): 0.819
relative viability (NCI-H1666; first compound 0.2 µM): 0.862
relative viability (NCI-H1666; first compound 0.6325 µM): 0.789
relative viability (NCI-H1666; first compound 2 µM): 0.829
relative viability (NCI-H1666; first compound 6.325 µM): 0.7
relative viability (NCI-H1666; first compound 20 µM): 0.519
relative viability (NCI-H1792; first compound 0.2 µM): 0.657
relative viability (NCI-H1792; first compound 0.6325 µM): 0.565
relative viability (NCI-H1792; first compound 2 µM): 0.733
relative viability (NCI-H1792; first compound 6.325 µM): 0.559
relative viability (NCI-H1792; first compound 20 µM): 0.858
relative viability (NCI-H322M; first compound 0.2 µM): 0.564
relative viability (NCI-H322M; first compound 0.6325 µM): 0.652
relative viability (NCI-H322M; first compound 2 µM): 0.446
relative viability (NCI-H322M; first compound 6.325 µM): 0.455
relative viability (NCI-H322M; first compound 20 µM): 0.439
relative viability (NCI-H23; first compound 0.2 µM): 0.277
relative viability (NCI-H23; first compound 0.6325 µM): 0.213
relative viability (NCI-H23; first compound 2 µM): 0.192
relative viability (NCI-H23; first compound 6.325 µM): 0.263
relative viability (NCI-H23; first compound 20 µM): 0.139
relative viability (NCI-H727; first compound 0.2 µM): 0.663
relative viability (NCI-H727; first compound 0.6325 µM): 0.573
relative viability (NCI-H727; first compound 2 µM): 0.435
relative viability (NCI-H727; first compound 6.325 µM): 0.528
relative viability (NCI-H727; first compound 20 µM): 0.348
relative viability (NCI-H441; first compound 0.2 µM): 1.16
relative viability (NCI-H441; first compound 0.6325 µM): 1.09
relative viability (NCI-H441; first compound 2 µM): 1.17
relative viability (NCI-H441; first compound 6.325 µM): 0.674
relative viability (NCI-H441; first compound 20 µM): 0.386
relative viability (NCI-H647; first compound 0.2 µM): 0.502
relative viability (NCI-H647; first compound 0.6325 µM): 0.379
relative viability (NCI-H647; first compound 6.325 µM): 0.409
relative viability (NCI-H647; first compound 20 µM): 0.073
relative viability (NCI-H2342; first compound 0.2 µM): 0.414
relative viability (NCI-H2342; first compound 0.6325 µM): 0.475
relative viability (NCI-H2342; first compound 2 µM): 0.431
relative viability (NCI-H2342; first compound 6.325 µM): 0.477
relative viability (NCI-H2342; first compound 20 µM): 0.543
relative viability (LCLC-97TM1; first compound 0.2 µM): 0.231
relative viability (LCLC-97TM1; first compound 0.6325 µM): 0.243
relative viability (LCLC-97TM1; first compound 2 µM): 0.196
relative viability (LCLC-97TM1; first compound 6.325 µM): 0.145
relative viability (LCLC-97TM1; first compound 20 µM): 0.0668
relative viability (NCI-H838; first compound 0.2 µM): 0.868
relative viability (NCI-H838; first compound 0.6325 µM): 0.947
relative viability (NCI-H838; first compound 2 µM): 0.751
relative viability (NCI-H838; first compound 6.325 µM): 0.84
relative viability (NCI-H838; first compound 20 µM): 0.691
relative viability (NCI-H358; first compound 0.2 µM): 0.496
relative viability (NCI-H358; first compound 0.6325 µM): 0.512
relative viability (NCI-H358; first compound 2 µM): 0.468
relative viability (NCI-H358; first compound 6.325 µM): 0.342
relative viability (NCI-H358; first compound 20 µM): 0.231
relative viability (NCI-H522; first compound 0.2 µM): 0.891
relative viability (NCI-H522; first compound 0.6325 µM): 0.957
relative viability (NCI-H522; first compound 2 µM): 0.824
relative viability (NCI-H522; first compound 6.325 µM): 0.78
relative viability (NCI-H522; first compound 20 µM): 0.511
relative viability (NCI-H1915; first compound 0.2 µM): 0.691
relative viability (NCI-H1915; first compound 0.6325 µM): 0.495
relative viability (NCI-H1915; first compound 2 µM): 0.574
relative viability (NCI-H1915; first compound 6.325 µM): 0.384
relative viability (NCI-H1915; first compound 20 µM): 0.283
relative viability (NCI-H1437; first compound 0.2 µM): 1.02
relative viability (NCI-H1437; first compound 0.6325 µM): 1.12
relative viability (NCI-H1437; first compound 2 µM): 1.18
relative viability (NCI-H1437; first compound 6.325 µM): 0.916
relative viability (NCI-H1437; first compound 20 µM): 0.666
relative viability (NCI-H460; first compound 0.2 µM): 0.538
relative viability (NCI-H460; first compound 0.6325 µM): 0.629
relative viability (NCI-H460; first compound 2 µM): 0.526
relative viability (NCI-H460; first compound 6.325 µM): 0.251
relative viability (NCI-H460; first compound 20 µM): 0.0582
relative viability (EKVX; first compound 0.2 µM): 0.697
relative viability (EKVX; first compound 0.6325 µM): 0.616
relative viability (EKVX; first compound 2 µM): 0.625
relative viability (EKVX; first compound 6.325 µM): 0.599
relative viability (EKVX; first compound 20 µM): 0.44

Source: the supplement of paper PMC10307832
